Assay results published in ChEMBL document CHEMBL5252644, “Discovery of SYD5115, a novel orally active small molecule TSH-R antagonist” (Bioorg Med Chem, 2023).

Key:
[1] = AUC (0-infinity) in Wistar Han rat at 5 mg/kg,po administrated for 24 hrs by LC-MS/MS analysis; type: ADME, organism-based; set-up: time 24 hrs, dose 5 mg/kg, route po; details: in vivo
[2] = Drug concentration in M22-induced Wistar rat plasma at 12.5 micromol/kg,po measured upto 24 hrs by LC-MS/MS analysis; type: ADME, cell-free; details: dose 12.5 µmol/kg
[3] = AUC (0-infinity) in Wistar Han rat at 2 mg/kg,iv administrated for 24 hrs by LC-MS/MS analysis; type: ADME, organism-based; set-up: time 24 hrs, dose 2 mg/kg, route iv; details: in vivo
[4] = Volume of distribution at steady state in Wistar Han rat at 2 mg/kg,iv administrated for 24 hrs by LC-MS/MS analysis; type: ADME, organism-based; details: in vivo, read-out: Vdss
[5] = Cmax in Wistar Han rat at 5 mg/kg,po administrated for 24 hrs by LC-MS/MS analysis; type: ADME, organism-based; set-up: dose 5 mg/kg, time 24 hrs, route po; details: in vivo
[6] = Oral bioavailability in Wistar Han rat at 5 mg/kg administrated for 24 hrs by LC-MS/MS analysis; type: ADME, organism-based; details: in vivo
[7] = Tmax in Wistar Han rat at 5 mg/kg,po administrated for 24 hrs by LC-MS/MS analysis; type: ADME, organism-based; details: in vivo
[8] = Drug concentration in M22-induced Wistar rat plasma at 12.5 to 100 micromol/kg,po measured upto 24 hrs by LC-MS/MS analysis; type: ADME, cell-free; details: dose 12.5-100 µmol/kg

Structure (SMILES): CC(=O)N1c2cnc(NC(=O)O[C@@H](C)C(C)(C)C)nc2C2(CCC(F)(F)CC2)C1(C)C
- AUC(0-inf) [1]: 709 ng·h/mL
- Drug uptake [2]: Not Active
- AUC(0-inf) [3]: 617 ng·h/mL
- Vd [4]: 8.76 L/kg
- Cmax [5]: 145 ng/mL
- bioavailability [6]: 47%
- Tmax [7]: 1 h
- Drug uptake [8]: Active

Structure (SMILES): CC(=O)N1CCC(C)(c2ccccc2)c2cc(NC(=O)CCc3cccc(C(F)(F)F)c3)ccc21 (racemic)
- AUC(0-inf) [1]: 141 ng·h/mL
- AUC(0-inf) [3]: 694 ng·h/mL
- Vd [4]: 2.41 L/kg
- Cmax [5]: 52 ng/mL
- bioavailability [6]: 8%
- Tmax [7]: 1 h
